Test results as given in patent publication US20040024024A1, “Aromatic sulfone hydroxamates and their use as protease inhibitors” (priority 2001, published 2004).
pIC50: −log10 of the molar value.

Key:
[1] = target: T1, Human recombinant MMP-2 (Homo sapiens, UniProt P08253); assay: In vitro MMP inhibition, IC50 determination (fluorogenic substrate I); format: biochemical
T1 construct: made in house; host or cells: MMP-2-transfected p2AHT2 cells
T1 sequence (P08253 110-660): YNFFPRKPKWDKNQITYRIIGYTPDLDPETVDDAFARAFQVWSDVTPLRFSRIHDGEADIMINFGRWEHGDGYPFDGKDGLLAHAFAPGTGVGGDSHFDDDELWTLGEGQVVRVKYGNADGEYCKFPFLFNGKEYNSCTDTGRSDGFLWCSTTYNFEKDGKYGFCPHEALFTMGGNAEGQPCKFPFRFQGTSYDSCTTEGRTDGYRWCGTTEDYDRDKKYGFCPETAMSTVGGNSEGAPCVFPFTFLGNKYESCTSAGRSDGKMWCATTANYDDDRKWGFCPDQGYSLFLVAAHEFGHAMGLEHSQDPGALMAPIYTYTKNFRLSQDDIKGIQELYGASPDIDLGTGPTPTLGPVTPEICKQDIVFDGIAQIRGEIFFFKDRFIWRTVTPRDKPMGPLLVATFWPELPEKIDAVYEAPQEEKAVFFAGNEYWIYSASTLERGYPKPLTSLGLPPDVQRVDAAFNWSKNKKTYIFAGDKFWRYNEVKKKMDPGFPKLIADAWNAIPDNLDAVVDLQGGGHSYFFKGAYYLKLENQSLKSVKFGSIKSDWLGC
Procedure, shortened: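 APMA- or trypsin-activated recombinant MMP-2 was incubated at room temperature with serial inhibitor dilutions in Tris buffer pH 7.5 (100 mM NaCl, 10 mM CaCl2, 0.05% Brij), with DMSO from 1% stocks, and 4 μM substrate I. Cleavage was read by fluorescence at 328/415 nm; IC50 was taken from the loss of fluorescence versus inhibitor concentration.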

[2] = target: T2, Human recombinant MMP-13 (Homo sapiens, UniProt P45452); assay: as above; format: biochemical
T2 construct: made in house; host or cells: baculovirus / insect cells
Procedure, shortened: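 Fluorescence at 415 nm (excitation 328 nm) reports Gly-Leu cleavage of 4 μM quenched methoxycoumarin peptide substrate I. Human recombinant MMP-13, activated by trypsin or APMA, was incubated at room temperature with varied inhibitor concentrations in pH 7.5 Tris/NaCl/CaCl2 buffer; IC50 derived from reduced fluorescence.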

[3] = value outside parentheses (Ki in parenthesis)

Compound	pIC50 [1, 3]	pIC50 [2, 3]	pIC50 ([1]; value outside parentheses)	pIC50 ([2]; value outside parentheses)
COc1ccc(S(=O)(=O)C[C@H](C)COc2ccc(S(=O)(=O)C3(C(=O)NO)CCOCC3)cc2)cc1 [Example 433]	6.66	8.15	–	–
COc1ccc(SC[C@H](C)COc2ccc(S(=O)(=O)C3(C(=O)NO)CCOCC3)cc2)cc1 [Example 434]	8.96	9.22	–	–
O=C(NO)C1(S(=O)(=O)c2ccc(OCCCOc3ccccc3C(F)(F)F)cc2)CCOCC1 [Example 444]	8.05	8.12	–	–
CCCCOc1ccc(OCCCOc2ccc(S(=O)(=O)C3(C(=O)NO)CCOCC3)cc2)cc1 [Example 446]	7.12	8.18	–	–
O=C(NO)C1(S(=O)(=O)c2ccc(OCCCCO)cc2)CCOCC1 [Example 451]	8.33	8.05	–	–
O=C(NO)C1(S(=O)(=O)c2ccc(OCCCCCO)cc2)CCOCC1 [Example 452]	8.66	7.83	–	–
COCC(C)(C)COc1ccc(S(=O)(=O)C2(C(=O)NO)CCOCC2)cc1 [Example 455]	6.05	6.16	–	–
CCOCC(C)(C)COc1ccc(S(=O)(=O)C2(C(=O)NO)CCOCC2)cc1 [Example 456]	6.37	6.46	–	–
O=C(NO)C1(S(=O)(=O)c2ccc(OCCCCCc3ccc4ccccc4c3)cc2)CCOCC1 [Example 464]	7.34	8.85	–	–
C=CCCCOc1ccc(S(=O)(=O)C2(C(=O)NO)CCOCC2)cc1 [Example 481]	8.89	8.70	–	–
COC(=O)c1ccccc1S(=O)(=O)N1CC(Oc2ccc(S(=O)(=O)C3(C(=O)NO)CCOCC3)cc2)C1 [Example 482]	5.48	7.40	–	–
COc1ccc(OC)c(S(=O)(=O)N2CC(Oc3ccc(S(=O)(=O)C4(C(=O)NO)CCOCC4)cc3)C2)c1 [Example 484]	6.19	7.92	–	–
COc1ccc(OC)c(S(=O)(=O)NCC(CCl)Oc2ccc(S(=O)(=O)C3(C(=O)NO)CCOCC3)cc2)c1 (stereo not shown) [Example 485]	5.40	7.19	–	–
COc1cc2c(cc1OC)CN(C(=O)NCCCOc1ccc(S(=O)(=O)C3(C(=O)NO)CCOCC3)cc1)CC2 [Example 496]	–	–	6.62	8.08
O=C(NCCCOc1ccc(S(=O)(=O)C2(C(=O)NO)CCOCC2)cc1)N1CCOCC1 [Example 497]	–	–	5.84	7.63
COc1ccc(NC(=O)NCCCOc2ccc(S(=O)(=O)C3(C(=O)NO)CCOCC3)cc2)c(C)c1 [Example 498]	–	–	6.80	7.83
O=C(NO)C1(S(=O)(=O)c2ccc(OCCc3cccc(-c4cncnc4)c3)cc2)CCOCC1 [Example 521]	–	–	7.21	8.24
CCN1CCC(C(=O)NO)(S(=O)(=O)c2ccc(OCCCSc3nc4ccccc4o3)cc2)CC1 [Example 525]	–	–	8.12	8.82
O=C(Cc1nn[nH]n1)NCCOc1ccc(S(=O)(=O)C2(C(=O)NO)CCOCC2)cc1 [Example 564]	–	–	6.84	7.71
O=C(Cc1nnn(Cc2ccccc2)n1)NCCOc1ccc(S(=O)(=O)C2(C(=O)NO)CCOCC2)cc1 [Example 565]	–	–	7.85	8.80
Cn1cnc(CC(=O)NCCOc2ccc(S(=O)(=O)C3(C(=O)NO)CCOCC3)cc2)c1 [Example 566]	–	–	7.18	7.73
O=C(NO)C1(S(=O)(=O)c2ccc(OCCCc3nnc(-c4ccncc4)o3)cc2)CCOCC1 [Example 568]	–	–	7.68	8.82
O=C(CCCOc1ccc(S(=O)(=O)C2(C(=O)NO)CCOCC2)cc1)Nc1cccc(-c2ccccc2)c1 [Example 571]	–	–	7.92	8.80
CC(C)(C)c1cccc(NC(=O)CCCOc2ccc(S(=O)(=O)C3(C(=O)NO)CCOCC3)cc2)c1 [Example 572]	–	–	7.43	8.33
O=C(NO)C1(S(=O)(=O)c2ccc(OCCCc3cc(C(F)(F)F)cc(C(F)(F)F)c3)cc2)CCOCC1 [Example 573]	–	–	5.77	7.12
O=C(NO)C1(S(=O)(=O)c2ccc(OCCCc3cccnc3)cc2)CCOCC1 [Example 575]	–	–	8.08	8.70
O=C(CCCOc1ccc(S(=O)(=O)C2(C(=O)NO)CCOCC2)cc1)N1CCc2ccccc21 [Example 577]	–	–	7.32	8.92
CC(C)Oc1cccc(NC(=O)CCCOc2ccc(S(=O)(=O)C3(C(=O)NO)CCOCC3)cc2)c1 [Example 583]	–	–	7.80	8.80
COc1cc(CCCOc2ccc(S(=O)(=O)C3(C(=O)NO)CCOCC3)cc2)cc(OC)c1 [Example 585]	–	–	7.07	8.40

The remaining lines, values ahead:

pIC50 [1, 3]	pIC50 [2, 3]	pIC50 ([1]; value outside parentheses)	pIC50 ([2]; value outside parentheses)	Compound
–	–	8.00	9.22	CC(=O)c1cccc(CCCOc2ccc(S(=O)(=O)C3(C(=O)NO)CCOCC3)cc2)c1 [Example 586]
–	–	7.02	7.82	COc1ccc(C(=N)NCCCOc2ccc(S(=O)(=O)C3(C(=O)NO)CCOCC3)cc2)cc1 [Example 588]
–	–	8.00	9.40	O=C(NCCOc1ccc(S(=O)(=O)C2(C(=O)NO)CCOCC2)cc1)c1nc2ccccc2s1 [Example 589]
–	–	6.07	7.32	O=C(NO)C1(S(=O)(=O)c2ccc(OCCn3nnc4ccccc4c3=O)cc2)CCOCC1 [Example 590]
–	–	6.47	7.41	Cn1c(C(=O)NCCOc2ccc(S(=O)(=O)C3(C(=O)NO)CCOCC3)cc2)cc2ccccc21 [Example 592]
–	–	8.19	7.81	O=C(NCCSc1ccc(S(=O)(=O)C2(C(=O)NO)CCOCC2)cc1)c1cc2ccccc2[nH]1 [Example 593]
–	–	6.85	8.42	O=C(NO)C1(S(=O)(=O)c2ccc(OCCc3cccc(N4CCCCC4)c3)cc2)CCOCC1 [Example 594]
–	–	6.33	7.92	O=C(NCCSc1ccc(S(=O)(=O)C2(C(=O)NO)CCOCC2)cc1)c1cc2ccccc2s1 [Example 597]
–	–	6.69	6.67	N=C(NCCOc1ccc(S(=O)(=O)C2(C(=O)NO)CCOCC2)cc1)c1ccccc1 [Example 600]
–	–	7.86	8.44	COc1cccc(CC(=O)NCCOc2ccc(S(=O)(=O)C3(C(=O)NO)CCOCC3)cc2)c1 [Example 602]
–	–	7.47	8.62	COc1ccc(S(=O)(=O)NCCOc2ccc(S(=O)(=O)C3(C(=O)NO)CCOCC3)cc2)cc1 [Example 603]
–	–	7.44	8.48	O=C(NCCOc1ccc(S(=O)(=O)C2(C(=O)NO)CCOCC2)cc1)c1ccc(-c2ccccc2)cc1 [Example 604]
–	–	7.36	8.42	O=C(NCCSc1ccc(S(=O)(=O)C2(C(=O)NO)CCOCC2)cc1)c1ccc(-c2ccc(O)cc2)cc1 [Example 605]
–	–	6.31	8.39	O=C(NCCOc1ccc(S(=O)(=O)C2(C(=O)NO)CCOCC2)cc1)c1ccc(-c2cccc(C(F)(F)F)c2)o1 [Example 610]
–	–	6.13	7.87	O=C(NCCOc1ccc(S(=O)(=O)C2(C(=O)NO)CCOCC2)cc1)c1ccc(-c2cc(C(F)(F)F)ccc2Cl)o1 [Example 611]
–	–	5.91	7.79	CC(C)CCCc1cccc(CCCOc2ccc(S(=O)(=O)C3(C(=O)NO)CCOCC3)cc2)c1 [Example 612]
–	–	7.46	8.18	CN(C)c1cccc(CCCOc2ccc(S(=O)(=O)C3(C(=O)NO)CCN(C4CC4)CC3)cc2)c1 [Example 613]
–	–	6.09	7.56	O=C(Cc1ccc(-c2ccc(Cl)cc2)s1)NCCOc1ccc(S(=O)(=O)C2(C(=O)NO)CCOCC2)cc1 [Example 618]
